Experimental data published in US12516016B2, “GPX4 inhibitors, pharmaceutical compositions thereof, and their use for treating GPX4-mediated diseases” (EUBULUS BIOTHERAPEUTICS (HONG KONG) LIMITED, priority 2020, dated 2026).

System: hepatocellular carcinoma cell line Hub-7
Assay: Cell proliferation assay (CELL-TITER GLO cell viability)
Type: cell-based
Conditions: 24 h, Hub-7 cells, 24 h incubation, read-out: Inhibition of Cell Proliferation EC50
Method in brief: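 […] cells (4,000/well) seeded overnight, then exposed 24 h to compound from 10 μM in 3-fold serial dilutions. Viability read by CELL-TITER GLO luminescence; EC50 values derived.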

Row | EC50 | SMILES
1 | > 10000 nM | C=CC(=O)N(c1ccc(OC)c(Cl)c1)C(C(=O)NCc1ccccc1)c1cccc(N)c1 (stereo not shown) [B2, N-(2-(benzylamino)-1-(3-aminophenyl)-2-oxoethyl)-N-(3-chloro-4-methoxyphenyl)acrylamide]
2 | > 10000 nM | C=C(F)C(=O)N(c1cccc(Cl)c1)C(C(=O)NCc1ccccc1)c1ccc(N)cc1 (stereo not shown) [B3, N-(1-(4-Aminophenyl)-2-(benzylamino)-2-oxoethyl)-N-(3-chlorophenyl)-2-fluoroacrylamide]
3 | > 10000 nM | C=C(F)C(=O)N(c1ccc(OC)c(Cl)c1)C(C(=O)NCc1ccccc1)c1cccc(N)c1 (stereo not shown) [B4, N-(1-(3-Aminophenyl)-2-(benzylamino)-2-oxoethyl)-N-(3-chloro-4-methoxy-phenyl)-2-fluoroacrylamide]
4 | > 10000 nM | C=CC(=O)N(c1cccc(Cl)c1)C1(C(=O)NCc2ccccc2)CCOCC1 [B5, N-Benzyl-4-(N-(3-chlorophenyl)acrylamido)tetrahydro-2H-pyran-4-carboxamide]
5 | > 10000 nM | C=CC(=O)N(CCc1ccccc1)C1(C(=O)NCc2ccccc2)CCOCC1 [B6, N-Benzyl-4-(N-phenethylacrylamido)tetrahydro-2H-pyran-4-carboxamide]
6 | > 10000 nM | C=CC(=O)N(Cc1cccc(O)c1)C1(C(=O)NCc2ccccc2)CCOCC1 [B7, N-Benzyl-4-(N-(3-hydroxybenzyl)acrylamido)tetrahydro-2H-pyran-4-carboxamide]
7 | > 10000 nM | C=CC(=O)N(C1CCC1)C1(C(=O)NCc2ccccc2)CCOCC1 [B8, N-Benzyl-4-(N-cyclobutylacrylamido)tetrahydro-2H-pyran-4-carboxamide]
8 | > 10000 nM | C=C(F)C(=O)N(c1ccc2c(cnn2C)c1)C1(C(=O)NCc2ccccc2)CCOCC1 [B9, N-Benzyl-4-(2-fluoro-N-(1-methyl-1H-indazol-5-yl)acrylamido)tetrahydro-2H-pyran-4-carboxamide]
9 | > 10000 nM | CN(C)C/C=C/C(=O)N(c1ccc2c(cnn2C)c1)C1(C(=O)NCc2ccccc2)CCOCC1 [B10, (E)-N-Benzyl-4-(4-(dimethylamino)-N-(1-methyl-1H-indazol-5-yl)but-2-enamido)tetrahydro-2H-pyran-4-carboxamide]
10 | > 10000 nM | C=CC(=O)N(c1ccc2c(cnn2C)c1)C1(C(=O)NCc2ccccc2)CCOCC1 [B11, N-Benzyl-4-(N-(1-methyl-1H-indazol-5-yl)acrylamido)tetrahydro-2H-pyran-4-carboxamide]
11 | > 10000 nM | CC(C)N(C(=O)CCl)C(C(=O)NCCc1ccccc1)c1cccs1 (stereo not shown) [C1, 2-chloro-N-isopropyl-N-(2-oxo-2-(phenethylamino)-1-(thiophen-2-yl)ethyl)acetamide]
12 | 2000 to 10000 nM | Nc1ccc(N(C(=O)CCl)C(C(=O)NCCc2ccccc2)c2cccs2)cc1 (stereo not shown) [C2, N-(4-Aminophenyl)-2-chloro-N-(2-oxo-2-(phenethylamino)-1-(thiophen-2-yl)-ethyl)acetamide]
13 | 100 to 500 nM | COc1ccc(N(C(=O)CCl)C(C(=O)NCCc2ccccc2)c2ccc(N)cc2)cc1Cl (stereo not shown) [C3, 2-(4-aminophenyl)-2-(2-chloro-N-(3-chloro-4-methoxyphenyl)acetamido)-N-phenethylacetamide]
14 | 500 to 2000 nM | COc1ccc(N(C(=O)CCl)C(C(=O)NCCc2ccccc2)c2ccc(NC(=O)CO)cc2)cc1Cl (stereo not shown) [C4, 2-chloro-N-(3-chloro-4-methoxyphenyl)-N-(1-(4-(2-hydroxyacetamido)phenyl)-2-oxo-2-(phenethylamino)ethyl)acetamide]
15 | 100 to 500 nM | O=C(NCCc1ccccc1)C(c1ccc([N+](=O)[O-])cc1)N(C(=O)CCl)c1cccc(Cl)c1 (stereo not shown) [C5, 2-chloro-N-(3-chlorophenyl)-N-(1-(4-nitrophenyl)-2-oxo-2-(phenethylamino)ethyl)acetamide]
16 | 500 to 2000 nM | Nc1ccc(C(C(=O)NCCc2ccccc2)N(C(=O)CCl)c2cccc(Cl)c2)cc1 (stereo not shown) [C6, 2-chloro-N-(3-chlorophenyl)-N-(1-(4-aminophenyl)-2-oxo-2-(phenethylamino)ethyl)acetamide]

The next lines start with the compound.

Row | SMILES | EC50
17 | C#CC(=O)N(c1cccc(Cl)c1)C1(C(=O)NCC(=O)N2CCCC(C(=O)OC)C2)CCOCC1 (stereo not shown) [A184, Methyl 1-(2-(4-(N-(3-chlorophenyl)propiolamido)tetrahydro-2H-pyran-4-carboxamido)acetyl)piperidine-3-carboxylate] | 100 to 500 nM
18 | C#CC(=O)N(c1cccc(Cl)c1)C1(C(=O)NCC(=O)NCc2ccccc2O)CCOCC1 [A185, 4-(N-(3-Chlorophenyl)propiolamido)-N-(2-((2-hydroxybenzyl)amino)-2-oxoethyl)tetrahydro-2H-pyran-4-carboxamide] | 100 to 500 nM
19 | C#CC(=O)N(c1cccc(Cl)c1)C1(C(=O)NCC(=O)NCCO)CCOCC1 [A186, 4-(N-(3-Chlorophenyl)propiolamido)-N-(2-((2-hydroxyethyl)amino)-2-oxoethyl)-tetrahydro-2H-pyran-4-carboxamide] | 2000 to 10000 nM
20 | C#CC(=O)N(c1cccc(Cl)c1)C1(C(=O)NCC(=O)NCc2ccccc2Cl)CCOCC1 [A187, N-(2-((2-Chlorobenzyl)amino)-2-oxoethyl)-4-(N-(3-chlorophenyl)propiolamido)-tetrahydro-2H-pyran-4-carboxamide] | 100 to 500 nM
21 | C#CC(=O)N(c1cccc(Cl)c1)C1(C(=O)NCC(=O)NCc2ccccc2)CCOCC1 [A188, N-(2-(Benzylamino)-2-oxoethyl)-4-(N-(3-chlorophenyl)propiolamido)tetrahydro-2H-pyran-4-carboxamide] | 100 to 500 nM
22 | C#CC(=O)N(c1cccc(Cl)c1)C1(C(=O)NCC(=O)NCc2ccccc2C#N)CCOCC1 [A189, 4-(N-(3-Chlorophenyl)propiolamido)-N-(2-((2-cyanobenzyl)amino)-2-oxoethyl)-tetrahydro-2H-pyran-4-carboxamide] | 100 to 500 nM
23 | C#CC(=O)N(c1ccc(OC)cc1OC)C(C(=O)NCC(=O)OCC)c1cccs1 (stereo not shown) [A190, Ethyl 2-(2-(N-(2,4-dimethoxyphenyl)propiolamido)-2-(thiophen-2-yl)acetamido)-acetate] | 500 to 2000 nM
24 | C#CC(=O)N(c1cccc(Cl)c1)C1(C(=O)NCC(=O)OCC)CCOCC1 [A191, Ethyl 2-(4-(N-(3-chlorophenyl)propiolamido)tetrahydro-2H-pyran-4-carboxamido)acetate] | 500 to 2000 nM
25 | C#CC(=O)N(c1cccc(Cl)c1)C1(C(=O)NCC(=O)O)CCOCC1 [A192, 2-(4-(N-(3-Chlorophenyl)propiolamido)tetrahydro-2H-pyran-4-carboxamido)-acetic acid] | > 10000 nM
26 | C#CC(=O)N(c1cccc(Cl)c1)C1(C(=O)NCC(=O)Nc2ccccc2)CCOCC1 [A193, 4-(N-(3-Chlorophenyl)propiolamido)-N-(2-oxo-2-(phenylamino)ethyl)tetrahydro-2H-pyran-4-carboxamide] | 100 to 500 nM
27 | C#CC(=O)N(c1cccc(Cl)c1)C1(C(=O)NCC(=O)N2CCCC(CO)C2)CCOCC1 (stereo not shown) [A194, 4-(N-(3-Chlorophenyl)propiolamido)-N-(2-(3-(hydroxymethyl)piperidin-1-yl)-2-oxoethyl)tetrahydro-2H-pyran-4-carboxamide] | 2000 to 10000 nM
28 | C[Si](C)(C)C#CC(=O)N(c1cccc(Cl)c1)C1(C(=O)NCc2cccc(Cl)c2)CCOCC1 [A195, N-(3-Chlorobenzyl)-4-(N-(3-chlorophenyl)-3-(trimethylsilyl)propiolamido)-tetrahydro-2H-pyran-4-carboxamide] | ≤ 100 nM
